In experiment [1] the test system is hypertonic saline-induced IOP increase in rabbits. The experiment in a line: Intraocular pressure (IOP) lowering activity in hypertonic saline-induced IOP increase in rabbits. Particulars: for IOP reduction after single application (in words): compared to ISMN and timolol; for IOP change 60 minutes / IOP change 120 minutes / IOP change 240 minutes: single topical application. The class given is in vivo, New Zealand White rabbits. The protocol: The present study evaluated the intraocular pressure lowering effect of single applications of two compounds of the inventions (compound (1a) and compound (4a)) and two reference compounds at the same concentrations and in rabbits with induced IOP increase.
Adult male New Zealand White rabbits weighting 1.8-2.0 Kg were used in the experiments.
The transient increase in IOP was induced by the injection of 0.1 ml of hypertonic saline solution (5%) into the vitreous bilaterally (Krauss et al., 2011, Orihashi et al., 2005).
(§1) IOP was measured using a Tono-Pen XL prior to hypertonic saline injection (basal) and at 30, 60, 120 and 240 min thereafter. Vehicle (5% cremophor-EL; 0.3% DMSO; 0.2 mg/ml Benzalkonium chloride in PBS pH 6.0) or compound (1.0%) was instilled as eye drops immediately after hypertonic saline injection. Eyes were randomly assigned to different treatment groups. Vehicle and compounds were directly instilled into the conjunctiva pocket at the desired doses. One drop of 0.4% oxybuprocaine hydrochloride (Novesine, Sandoz) was instilled in each eye immediately before each set of pressure measurements.
Results are reported in Table 1 and they are expressed as IOP change (at 60, 120 and 240 minutes following topical administration) versus vehicle and versus IOP at basal before hypertonic saline injection.
Hypertonic Saline-Induced IOP Increase Rabbit Model
as §1, with “compound (9)” for “compound”, “compound (9)” for “compounds”
Experimental data are reported in Table 3 and they are expressed as IOP change (at 60, 120 and 240 minutes following topical administration) versus vehicle and versus IOP at basal before hypertonic saline injection
The hypotensive effects of compound (9) and of ISMN and timolol were evaluated using the same transient ocular hypertensive rabbit model, see Example 9, but in different groups of hypertensive rabbits.

Experiment [2] has as its system ocular normotensive rabbits. The experiment in a line: Intraocular pressure (IOP) lowering activity in ocular normotensive New Zealand White rabbits. The class given is in vivo, New Zealand White (NZW) rabbits. Particulars: 1% eye drops; for duration of IOP reduction after single application (in words): compared to the reference compound; for IOP change 60 minutes / IOP change 120 minutes / IOP change 180 minutes / IOP change 240 minutes / IOP change 30 minutes / IOP change 300 minutes: single topical application. As to the method: The present study evaluated the long lasting intraocular pressure lowering effect of single application of two compounds of the inventions (compound (1a) and compound (4a)) with respect to a prior art compound, in an ocular normotensive animal model (rabbit) at the same concentrations.
Adult male New Zealand White (NZW) rabbits weighting 1.8-2.0 Kg were used in the experiments.
IOP was measured using a pneumatonometer 30 CLASSIC™ before topical application (basal) and at different time points (30, 60, 120, 240 and 300 min) thereafter. Vehicle (5% cremophor-EL; 0.3% DMSO; 0.2 mg/ml bac in PBS pH 6.0) or compound of the invention were instilled as eye drops into the conjunctiva pocket. Eyes were randomly assigned to different treatment groups. One drop of 0.4% oxybuprocaine hydrochloride (Novesine, Sandoz) was instilled in each eye immediately before each set of pressure measurements. Results are reported in Table 2 and they are expressed as IOP change (at 60, 120, 180 and 240 minutes following topical administration) versus vehicle and versus IOP at basal.
Ocular Normotensive Rabbit Model
IOP was measured using a pneumatonometer 30 CLASSIC™ before topical application (basal) and at different time points (30, 60, 120, 240 and 300 min) thereafter. Vehicle (5% cremophor-EL; 0.3% DMSO; 0.2 mg/ml bac in PBS pH 6.0) or compound (9) (1%) were instilled as eye drops into the conjunctiva pocket. Eyes were randomly assigned to different treatment groups. One drop of 0.4% oxybuprocaine hydrochloride (Novesine, Sandoz) was instilled in each eye immediately before each set of pressure measurements.
Experimental data are reported in Table 4 and they are expressed as IOP change (at 60, 120, 180 and 240 minutes following topical administration) versus vehicle and versus IOP at basal.
The IOP-lowering effects of compound (9) and of the Reference compound were assessed in the same normotensive rabbit model, see Example 10, but using different groups of […] rabbits.

The mark [3] stands for this setting: Table 1, conc. 1% eye drops, versus vehicle and versus basal IOP.
Where [4] appears, read: Table 2, versus vehicle and versus basal IOP.
Where [5] appears, read: Table 3, 1% eye drops, versus vehicle and basal, references from different groups of rabbits (Example 9).
Where [6] appears, read: Table 4, versus vehicle and basal, reference from different groups of rabbits (Example 10).

SMILES strings stand for the structures.

This is an account of results in patent US10093696B2, “Nitric oxide donating carnosine compounds” (NICOX SCIENCE IRELAND, priority 2014, dated 2018).

In the case of `COC(=O)[C@H](Cc1c[nH]cn1)NC(=O)CCNC(=O)CCCCO[N+](=O)[O-].Cl` [Compound (1a), (S)-methyl-3-(1H-imidazol-4-yl)-2-(3-(5-(nitrooxy)pentanamido)propanamido)propanoate hydrochloride], the “IOP reduction after single application (in words)” value in experiment [1] (1% eye drops) is recorded as “significant IOP reduction”. Also, in experiment [1] (setting [3]), the “IOP change 60 minutes” value is on record as −11.4 ± 0.8 mmHg, the “IOP change 120 minutes” value is given as −12.9 ± 0.4 mmHg and the “IOP change 240 minutes” value is −7.4 ± 0.5 mmHg. For the same compound, in experiment [2], the “duration of IOP reduction after single application (in words)” value (from here on “duration of IOP reduction”) was “significantly longer IOP reduction”. Moreover, in experiment [2] (setting [4]), the “IOP change 60 minutes” value was −1.2 ± 1.0 mmHg, the “IOP change 120 minutes” value is −1.5 ± 0.9 mmHg, the “IOP change 180 minutes” value is on record as −1.9 ± 0.9 mmHg and the “IOP change 240 minutes” value is on record as −1.7 ± 1.2 mmHg.

`O=C(CCCCCO[N+](=O)[O-])NCCC(=O)N[C@@H](Cc1c[nH]cn1)C(=O)O` [Compound (4a), (S)-3-(1H-imidazol-4-yl)-2-(3-(6-(nitrooxy)hexanamido)propanamido) propanoic acid 2,2,2-trifluoroacetate]: the “IOP reduction after single application (in words)” value in experiment [1] (1% eye drops) is on record as “significant IOP reduction”. In experiment [1] (setting [3]), the “IOP change 60 minutes” value is given as −7.6 ± 1.6 mmHg, the “IOP change 120 minutes” value is −9.0 ± 1.2 mmHg and the “IOP change 240 minutes” value was −5.3 ± 0.6 mmHg. For the same compound, the “duration of IOP reduction” value in experiment [2] is listed as “significantly longer IOP reduction”. Also, in experiment [2] (setting [4]), the “IOP change 60 minutes” value was −1.6 ± 0.4 mmHg, the “IOP change 120 minutes” value is listed as −1.5 ± 0.6 mmHg, the “IOP change 180 minutes” value is reported as −1.4 ± 0.6 mmHg and the “IOP change 240 minutes” value is −0.9 ± 0.6 mmHg.

On to `COC(=O)[C@H](Cc1c[nH]cn1)NC(=O)CCNC(=O)CCC[C@@H](CO[N+](=O)[O-])O[N+](=O)[O-]` [Compound (9), (S)-methyl 2-(3-((S)-5,6-bis(nitrooxy)hexanamido)propanamido)-3-(1H-imidazol-4-yl)propanoate], for which the “IOP reduction after single application (in words)” value in experiment [1] (1% eye drops) is reported as “significant IOP reduction”. In experiment [1] (setting [5]), the “IOP change 60 minutes” value is listed as −7.2 ± 1.0 mmHg, the “IOP change 120 minutes” value is given as −6.4 ± 1.0 mmHg and the “IOP change 240 minutes” value is recorded as −3.9 ± 0.9 mmHg. Moreover, in experiment [2], the “duration of IOP reduction” value is on record as “long lasting IOP-lowering effect”. Moreover, in experiment [2] (setting [6]), the “IOP change 30 minutes” value is reported as −1.6 ± 0.2 mmHg, the “IOP change 60 minutes” value is −1.0 ± 0.4 mmHg, the “IOP change 120 minutes” value is −1.3 ± 0.2 mmHg and the “IOP change 180 minutes” value is listed as −1.3 ± 0.3 mmHg. Besides, in experiment [2] (setting [6]), the “IOP change 240 minutes” value is reported as −1.5 ± 0.4 mmHg and the “IOP change 300 minutes” value is −1.5 ± 0.4 mmHg.

For `O=[N+]([O-])O[C@@H]1CO[C@H]2[C@@H]1OC[C@@H]2O` [ISMN, Isosorbide mononitrate, reference compound], in experiment [1] (setting [3]), the “IOP change 60 minutes” value is given as −0.7 ± 2.9 mmHg, the “IOP change 120 minutes” value was −6.6 ± 1.8 mmHg and the “IOP change 240 minutes” value is −1.2 ± 1.3 mmHg. In experiment [1] (setting [5]), the “IOP change 60 minutes” value is −0.7 ± 2.9 mmHg, the “IOP change 120 minutes” value was −6.6 ± 1.8 mmHg and the “IOP change 240 minutes” value is given as −1.2 ± 1.3 mmHg.

`NCCC(=O)N[C@@H](Cc1c[nH]cn1)C(=O)NC[C@H](CO[N+](=O)[O-])O[N+](=O)[O-].O=C(O)C(F)(F)F` [Ref. compound, (R)-3-((S)-2-(3-aminopropanamido)-3-(1H-imidazol-4-yl)propanamido)propane-1,2-diyl dinitrate 2,2,2-trifluoroacetate, reference compound]: in experiment [2] (setting [4]), the “IOP change 60 minutes” value is listed as −0.8 ± 0.6 mmHg, the “IOP change 120 minutes” value is −0.3 ± 0.4 mmHg, the “IOP change 180 minutes” value is reported as −0.2 ± 0.4 mmHg and the “IOP change 240 minutes” value is −0.05 ± 0.6 mmHg. In experiment [2] (setting [6]), the “IOP change 30 minutes” value was −1.0 ± 0.5 mmHg, the “IOP change 60 minutes” value is reported as −0.8 ± 0.6 mmHg, the “IOP change 120 minutes” value was −0.3 ± 0.4 mmHg and the “IOP change 180 minutes” value is reported as −0.2 ± 0.4 mmHg. Besides, in experiment [2] (setting [6]), the “IOP change 240 minutes” value is recorded as −0.05 ± 0.6 mmHg and the “IOP change 300 minutes” value was −0.7 ± 0.4 mmHg.

With `CC(C)(C)NC[C@H](O)COc1nsnc1N1CCOCC1` [Timolol, reference compound], in experiment [1] (setting [3]), the “IOP change 60 minutes” value was −5.7 ± 1.4 mmHg, the “IOP change 120 minutes” value is on record as −8.4 ± 1.2 mmHg and the “IOP change 240 minutes” value stood at 0.2 ± 1.2 mmHg. In experiment [1] (setting [5]), the “IOP change 60 minutes” value is −5.7 ± 1.4 mmHg, the “IOP change 120 minutes” value is given as −8.4 ± 1.2 mmHg and the “IOP change 240 minutes” value is listed as 0.2 ± 1.2 mmHg.
